Read-outs that look alike come from different tables or passages of the source.
Target: T1, Menin-MLL (Homo sapiens, UniProt O00255)
T1 construct: His-Menin (M1-L615 end); purchased BIORTUS BP9210
T1 sequence (O00255 1-615 isoform O00255-1): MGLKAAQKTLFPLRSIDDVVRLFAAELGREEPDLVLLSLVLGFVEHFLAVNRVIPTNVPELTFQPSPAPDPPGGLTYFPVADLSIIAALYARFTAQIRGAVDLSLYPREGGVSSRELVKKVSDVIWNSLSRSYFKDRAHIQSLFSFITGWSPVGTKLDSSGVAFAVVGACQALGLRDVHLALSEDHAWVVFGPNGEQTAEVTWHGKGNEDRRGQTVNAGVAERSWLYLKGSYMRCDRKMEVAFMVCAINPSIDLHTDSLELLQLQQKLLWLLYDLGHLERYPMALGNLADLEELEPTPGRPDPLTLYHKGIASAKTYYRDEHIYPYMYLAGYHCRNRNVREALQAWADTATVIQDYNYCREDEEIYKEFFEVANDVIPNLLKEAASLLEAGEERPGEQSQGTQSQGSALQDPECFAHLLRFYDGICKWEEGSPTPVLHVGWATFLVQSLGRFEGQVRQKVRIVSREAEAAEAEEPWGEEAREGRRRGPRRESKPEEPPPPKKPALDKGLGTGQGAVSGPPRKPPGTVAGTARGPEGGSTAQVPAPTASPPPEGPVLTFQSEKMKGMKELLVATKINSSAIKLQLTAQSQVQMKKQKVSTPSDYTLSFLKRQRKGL
Experiment: Inhibitory activity against Menin-MLL binding (fluorescence polarization)
Conditions: 150 nM His-Menin, 15 nM FITC-MLL, 25°C for 60 min
How it was run: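 His-Menin (M1-L615, 150 nM) preincubated with compound 15 min at 25 °C in HEPES pH 7.5, 50 mM NaCl, 1 mM DTT, 0.01% BSA, then 15 nM FITC-MLL4-43 peptide added for 60 min at 25 °C. Fluorescence polarization read; IC50 from 4-parameter logistic fit, duplicates.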

[1] = fluorescence polarization, read-out: Menin-MLL IC50

Row | Structure (SMILES) | IC50 [1] [nM] | other results
1 | COC1CCN(CCC[C@@H](C(C)C)N2CC(c3cc(-c4ccc(F)cc4C(=O)N4CCOC[C@H]4C)c4cnn(C)c4c3)C2)CC1 [Example 181-1, 4-{4-fluoro-2-[(3R)-3-methylmorpholin-4-carbonyl]phenyl}-6-{1-[(3S)-6-(4-methoxypiperidin-1-yl)-2-methylhexan-3-yl]azacyclobutan-3-yl}-1-methyl-1H-indazole] | 621 | –
2 | COCC1CN(CCC[C@@H](C(C)C)N2CC(c3cc(-c4ccc(F)cc4C(=O)N4CCOC[C@H]4C)c4cnn(C)c4c3)C2)C1 [Example 183-1] | 507 | –
3 | CO[C@H]1CCN(CCC[C@@H](C(C)C)N2CC(c3cc(-c4ccc(F)cc4C(=O)N4CCOC[C@H]4C)c4cnn(C)c4c3)C2)C1 [Example 184-1] | 805 | –
4 | COCCN(C)CCC[C@@H](C(C)C)N1CC(c2cc(-c3ccc(F)cc3C(=O)N3[C@H](C)COC[C@H]3C)c3cnn(C)c3c2)C1 [Example 186-1, [(4S)-4-[3-(4-{2-[(3R,5R)-3,5-dimethylmorpholin-4-carbonyl]-4-fluorophenyl}-1-methyl-1H-indazol-6-yl)azacyclobutan-1-yl]-5-methylhexyl](2-methoxyethyl)methylamine] | 262 | –
5 | CCS(=O)(=O)N[C@H]1CC[C@@H](CN2CC(c3cc(-c4ccc(F)cc4C(=O)N4[C@H](C)COC[C@H]4C)c4c(F)nc(C)n4c3)C2)CC1 [Example 198, N-[(1s,4s)-4-{[3-(8-{2-[(3R,5R)-3,5-dimethylmorpholin-4-carbonyl]-4-fluorophenyl}-1-fluoro-3-methylimidazo[1,5-a]pyridin-6-yl)azacyclobutan-1-yl]methyl}cyclohexyl]ethan-1-sulfonamide] | – | IC50 (read-out: Menin-MLL IC50, fluorescence polarization): 4 nM
6 | Cc1nc(F)c2c(-c3ccc(F)cc3C(=O)N3CCOC[C@H]3C)cc(C3CN([C@H](CCCN4CCOCC4)C(C)C)C3)cn12 [Example 199-1, (3R)-4-[5-fluoro-2-(1-fluoro-3-methyl-6-{1-[(3R)-2-methyl-6-(morpholin-4-yl)hexan-3-yl]azacyclobutan-3-yl}imidazo[1,5-a]pyridin-8-yl)benzoyl]-3-methylmorpholine] | 26 | –
7 | Cc1nc(F)c2c(-c3ccc(F)cc3C(=O)N3CCOC[C@H]3C)cc(C3CN([C@@H](CCCN4CCOCC4)C(C)C)C3)cn12 [Example 199-2, (3R)-4-[5-fluoro-2-(1-fluoro-3-methyl-6-{1-[(3S)-2-methyl-6-(morpholin-4-yl)hexan-3-yl]azacyclobutan-3-yl}imidazo[1,5-a]pyridin-8-yl)benzoyl]-3-methylmorpholine] | 205 | –
8 | COCCN(C)CCC[C@@H](C(C)C)N1CC(c2cc(-c3ccc(F)cc3C(=O)N3CCOC[C@H]3C)c3c(F)nc(C)n3c2)C1 [Example 200-2] | 75 | –
9 | COC1CCN(CCCC(C(C)C)N2CC(c3cc(-c4ccc(F)cc4C(=O)N4CCOCC4C)c4c(F)nc(C)n4c3)C2)C1 (stereo not shown) [Example 201-2] | 56 | –
10 | Cc1nc(F)c2c(-c3ccc(F)cc3C(=O)N3CCOC[C@H]3C)cc(C3CN(C[C@H]4CC[C@H](c5ncno5)CC4)C3)cn12 [Example 207-1, (3R)-4-{5-fluoro-2-[1-fluoro-3-methyl-6-(1-{[(1r,4r)-4-(1,2,4-oxadiazol-5-yl)cyclohexyl]methyl}azacyclobutan-3-yl)imidazo[1,5-a]pyridin-8yl]benzoyl}-3-methylmorpholine] | 111 | –
11 | Cc1nc(F)c2c(-c3ccc(F)cc3C(=O)N3CCOC[C@H]3C)cc(C3CN(C[C@H]4CC[C@@H](c5ncno5)CC4)C3)cn12 [Example 207-2, (3R)-4-{5-fluoro-2-[1-fluoro-3-methyl-6-(1-{[(1s,4s)-4-(1,2,4-oxadiazol-5-yl)cyclohexyl]methyl}azacyclobutan-3-yl)imidazo[1,5-a]pyridin-8yl]benzoyl}-3-methylmorpholine] | 269 | –
12 | Cc1nc(F)c2c(-c3ccc(F)cc3C(=O)N3[C@H](C)COC[C@H]3C)cc(C3CN(CC4(O)CCOCC4)C3)cn12 [Example 220, 4-{[3-(8-{2-[(3R,5R)-3,5-dimethylmorpholin-4-carbonyl]-4-fluorophenyl}-1-fluoro-3-methylimidazo[1,5-a]pyridin-6-yl)azacyclobutan-1-yl]methyl}oxacyclohexan-4-ol] | 167 | –
13 | CC(=O)N1CCC(CN2CC(Cc3cc(-c4ccc(F)cc4C(=O)N4[C@H](C)COC[C@H]4C)c4c(F)nc(C)n4c3)C2)CC1 [Example 228] | 130 | –
14 | Cc1nc(F)c2c(-c3ccc(F)cc3C(=O)N3[C@H](C)COC[C@H]3C)cc(CC3CN(CC4CCOCC4)C3)cn12 [Example 229] | 57 | –
15 | Cc1nc(F)c2c(-c3ccc(F)cc3C(=O)N3[C@H](C)COC[C@H]3C)cc(C3CN(CC4CCN(C(=O)c5cnoc5)CC4)C3)cn12 [Example 233] | 42 | –
16 | Cc1nc(F)c2c(-c3ccc(F)cc3C(=O)N3CCOC[C@H]3C)cc(C3CN(CC4CCCOC4)C3)cn12 (stereo partly shown) [Example 235] | 49.5 | –

Row | Structure (SMILES) | IC50 [1] [nM] | other results
17 | COC1(CN2CC(c3cc(-c4ccc(F)cc4C(=O)N4CCOC[C@H]4C)c4c(F)nc(C)n4c3)C2)CCOCC1 [Example 236] | 180 | –
18 | CNC(=O)[C@H]1CC[C@H](CN2CC(c3cc(-c4ccc(F)cc4C(=O)N4CCOC[C@H]4C)c4c(F)nc(C)n4c3)C2)CC1 [Example 237, (1r,4r)-4-{[3-(1-fluoro-8-{4-fluoro-2-[(3R)-3-methylmorpholin-4-carbonyl]phenyl}-3-methylimidazo[1,5-a]pyridin-6-yl)azacyclobutan-1-yl]methyl}-N-methylcyclohexan-1-formamide] | – | IC50 (Menin-MLL IC50, fluorescence polarization): 34 nM
19 | Cc1nc(F)c2c(-c3ccc(F)cc3C(=O)N3CCOC[C@H]3C)cc(C3CN(C(C)C4CCOCC4)C3)cn12 (stereo partly drawn) [Example 238, (3R)-4-[5-fluoro-2-(1-fluoro-3-methyl-6-{1-[1-(oxacyclohexan-4-yl)ethyl]azacyclobutan-3-yl}imidazo[1,5-a]pyridin-8-yl)benzoyl]-3-methylmorpholine] | 10 | –
20 | Cc1nc(F)c2c(-c3ccc(F)cc3C(=O)N3CCOC[C@H]3C)cc(C3CN([C@H](C)C4CCOCC4)C3)cn12 [Example 238-1, (3R)-4-[5-fluoro-2-(1-fluoro-3-methyl-6-{1-[(1R)-1-(oxacyclohexan-4-yl)ethyl]azacyclobutan-3-yl}imidazo[1,5-a]pyridin-8-yl)benzoyl]-3-methylmorpholine] | 80 | –
21 | Cc1nc(F)c2c(-c3ccc(F)cc3C(=O)N3CCOC[C@H]3C)cc(C3CN(CC4(O)CCOCC4)C3)cn12 [Example 239] | 199 | –
22 | Cc1nc(F)c2c(-c3ccc(F)cc3C(=O)N3CCOC[C@H]3C)cc(C3CN(CC4CCOC4)C3)cn12 (stereo partly shown) [Example 240] | 53.5 | –
23 | COCC(=O)N1CCC(CN2CC(c3cc(-c4ccc(F)cc4C(=O)N4CCOC[C@H]4C)c4c(F)nc(C)n4c3)C2)CC1 [Example 241, 1-(4-{[3-(1-fluoro-8-{4-fluoro-2-[(3R)-3-methylmorpholin-4-carbonyl]phenyl}-3-methylimidazo[1,5-a]pyridin-6-yl)azacyclobutan-1-yl]methyl}piperidin-1-yl)-2-methoxyethan-1-one] | 31.5 | –
24 | Cc1nc(F)c2c(-c3ccc(F)cc3C(=O)N3CCOC[C@H]3C)cc(C3CN([C@@H](CC[C@@H]4CNCCO4)C(C)C)C3)cn12 [Example 245-2, (3R)-4-[5-fluoro-2-(1-fluoro-3-methyl-6-{1-[(3S)-4-methyl-1-[(2R)-morpholin-2-yl]pentan-3-yl]azacyclobutan-3-yl}imidazo[1,5-a]pyridin-8yl)benzoyl]-3-methylmorpholine] | 58 | –
25 | Cc1nc(F)c2c(-c3ccc(F)cc3C(=O)N3CCOC[C@H]3C)cc(C3CN(CC4CCN(C(=O)N(C)C)CC4)C3)cn12 [Example 246] | 73 | –
26 | CCS(=O)(=O)N1CCC(CN2CC(c3cc(-c4ccc(F)cc4C(=O)N4CCOC[C@H]4C)c4c(F)nc(C)n4c3)C2)CC1 [Example 251] | 106 | –
27 | Cc1nc(F)c2c(-c3ccc(F)cc3C(=O)N3CCOC[C@H]3C)cc(C3CN(CC4CCN(S(=O)(=O)C5CC5)CC4)C3)cn12 [Example 252] | 109 | –
28 | Cc1nc(F)c2c(-c3ccc(F)cc3C(=O)N3CCOC[C@H]3C)cc(C3CN(C[C@H]4CC[C@H](n5cncn5)CC4)C3)cn12 [Example 253] | 39 | –
29 | Cc1nc(F)c2c(-c3ccc(F)cc3C(=O)N3CCOC[C@H]3C)cc(C3CN(CC4CCN(C(=O)C5(C#N)CC5)CC4)C3)cn12 [Example 254] | 48 | –
30 | COCC(C1CCOCC1)N1CC(c2cc(-c3ccc(F)cc3C(=O)N3CCOC[C@H]3C)c3c(F)nc(C)n3c2)C1 (stereo partly drawn) [Example 255, (3R)-4-[5-fluoro-2-(1-fluoro-6-{1-[2-methoxy-1-(oxacyclohexan-4-yl)ethyl]azacyclobutan-3-yl}-3-methylimidazo[1,5-a]pyridin-8-yl)benzoyl]-3-methylmorpholine] | 86 | –
31 | COCC(C1CCOCC1)N1CC(c2cc(-c3ccc(F)cc3C(=O)N3CCOC[C@H]3C)c3cnc(C)n3c2)C1 (stereo partly shown) [Example 256] | 189 | –

From patent EP4782453A1 (Beyang Therapeutics Co., Ltd., priority 2023, dated 2025)
